pIC50: −log10 of the molar value.
Experiments:
Format in all cases: biochemical
B-Raf V600E = B-Raf V600E (Homo sapiens, UniProt P15056, V600E); test: Kinase activity assay, B-Raf V600E; settings: Table 1c; read-out: activity toward kinase B-Raf V600E, IC50
From the text: (§1) Assays for the activity of kinases, including, but not limited to, Fms, Kit, B-Raf, B-Raf V600E, c-Raf-1, and TrkA are known in the art, for example as described in US Patent Publication Number US20070032519 and U.S. patent application Ser. No. 11/473,347 (see also, PCT publication WO2007002433), the disclosures of which are hereby incorporated by reference with respect to such assays.

Flt-3 = target: T1, Flt-3 (Homo sapiens, UniProt P36888); test: Kinase activity assay, Flt-3; settings: Table 1g; read-out: activity toward kinase Flt-3, IC50
T1 sequence (P36888 27-993): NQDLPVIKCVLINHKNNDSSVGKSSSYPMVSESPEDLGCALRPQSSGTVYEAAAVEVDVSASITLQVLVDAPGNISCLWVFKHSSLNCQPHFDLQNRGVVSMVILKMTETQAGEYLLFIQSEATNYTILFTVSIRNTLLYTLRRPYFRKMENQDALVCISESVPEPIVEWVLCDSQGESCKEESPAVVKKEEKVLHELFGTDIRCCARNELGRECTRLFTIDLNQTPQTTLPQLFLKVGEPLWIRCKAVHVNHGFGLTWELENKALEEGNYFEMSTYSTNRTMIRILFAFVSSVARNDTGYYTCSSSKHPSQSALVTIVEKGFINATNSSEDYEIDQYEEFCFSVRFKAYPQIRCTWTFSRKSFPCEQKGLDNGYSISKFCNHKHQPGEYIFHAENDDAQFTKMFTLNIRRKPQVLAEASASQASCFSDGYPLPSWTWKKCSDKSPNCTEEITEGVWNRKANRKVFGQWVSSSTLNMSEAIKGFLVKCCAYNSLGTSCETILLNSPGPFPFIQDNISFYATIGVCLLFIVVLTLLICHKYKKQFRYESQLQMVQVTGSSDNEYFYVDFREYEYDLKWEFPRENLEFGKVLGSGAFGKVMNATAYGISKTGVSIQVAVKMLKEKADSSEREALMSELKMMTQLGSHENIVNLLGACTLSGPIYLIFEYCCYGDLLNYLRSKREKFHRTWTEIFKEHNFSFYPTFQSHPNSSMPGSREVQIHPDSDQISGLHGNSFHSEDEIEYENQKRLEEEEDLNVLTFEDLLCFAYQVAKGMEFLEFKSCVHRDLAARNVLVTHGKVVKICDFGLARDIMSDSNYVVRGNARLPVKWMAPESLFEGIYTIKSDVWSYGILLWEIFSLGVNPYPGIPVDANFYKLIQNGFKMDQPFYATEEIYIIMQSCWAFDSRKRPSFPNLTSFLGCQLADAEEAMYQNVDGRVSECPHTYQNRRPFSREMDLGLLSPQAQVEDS
From the text: as §1

Fms = Fms (Homo sapiens, UniProt P07333); test: Kinase activity assay, Fms; settings: Table 1h; read-out: activity toward kinase Fms, IC50
From the text: as §1

Kdr = Kdr (Homo sapiens, UniProt P35968); test: Kinase activity assay, Kdr; settings: Table 1i; read-out: activity toward kinase Kdr, IC50
From the text: as §1

Kit = Kit (Homo sapiens, UniProt P10721); test: Kinase activity assay, Kit; settings: Table 1j; read-out: activity toward kinase Kit, IC50
From the text: as §1

C-Raf = C-Raf (Homo sapiens, UniProt P04049); test: Kinase activity assay, C-Raf; settings: Table 1d; read-out: activity toward kinase C-Raf, IC50
From the text: as §1

TrkA = TrkA (Homo sapiens, UniProt P04629); test: Kinase activity assay, TrkA; settings: Table 1m; read-out: activity toward kinase TrkA, IC50
From the text: as §1

B-Raf = B-Raf (Homo sapiens, UniProt P15056); test: Kinase activity assay, B-Raf; settings: Table 1b; read-out: activity toward kinase B-Raf, IC50
From the text: as §1

Measured: pIC50

Kdr, sequence (P35968 20-1356): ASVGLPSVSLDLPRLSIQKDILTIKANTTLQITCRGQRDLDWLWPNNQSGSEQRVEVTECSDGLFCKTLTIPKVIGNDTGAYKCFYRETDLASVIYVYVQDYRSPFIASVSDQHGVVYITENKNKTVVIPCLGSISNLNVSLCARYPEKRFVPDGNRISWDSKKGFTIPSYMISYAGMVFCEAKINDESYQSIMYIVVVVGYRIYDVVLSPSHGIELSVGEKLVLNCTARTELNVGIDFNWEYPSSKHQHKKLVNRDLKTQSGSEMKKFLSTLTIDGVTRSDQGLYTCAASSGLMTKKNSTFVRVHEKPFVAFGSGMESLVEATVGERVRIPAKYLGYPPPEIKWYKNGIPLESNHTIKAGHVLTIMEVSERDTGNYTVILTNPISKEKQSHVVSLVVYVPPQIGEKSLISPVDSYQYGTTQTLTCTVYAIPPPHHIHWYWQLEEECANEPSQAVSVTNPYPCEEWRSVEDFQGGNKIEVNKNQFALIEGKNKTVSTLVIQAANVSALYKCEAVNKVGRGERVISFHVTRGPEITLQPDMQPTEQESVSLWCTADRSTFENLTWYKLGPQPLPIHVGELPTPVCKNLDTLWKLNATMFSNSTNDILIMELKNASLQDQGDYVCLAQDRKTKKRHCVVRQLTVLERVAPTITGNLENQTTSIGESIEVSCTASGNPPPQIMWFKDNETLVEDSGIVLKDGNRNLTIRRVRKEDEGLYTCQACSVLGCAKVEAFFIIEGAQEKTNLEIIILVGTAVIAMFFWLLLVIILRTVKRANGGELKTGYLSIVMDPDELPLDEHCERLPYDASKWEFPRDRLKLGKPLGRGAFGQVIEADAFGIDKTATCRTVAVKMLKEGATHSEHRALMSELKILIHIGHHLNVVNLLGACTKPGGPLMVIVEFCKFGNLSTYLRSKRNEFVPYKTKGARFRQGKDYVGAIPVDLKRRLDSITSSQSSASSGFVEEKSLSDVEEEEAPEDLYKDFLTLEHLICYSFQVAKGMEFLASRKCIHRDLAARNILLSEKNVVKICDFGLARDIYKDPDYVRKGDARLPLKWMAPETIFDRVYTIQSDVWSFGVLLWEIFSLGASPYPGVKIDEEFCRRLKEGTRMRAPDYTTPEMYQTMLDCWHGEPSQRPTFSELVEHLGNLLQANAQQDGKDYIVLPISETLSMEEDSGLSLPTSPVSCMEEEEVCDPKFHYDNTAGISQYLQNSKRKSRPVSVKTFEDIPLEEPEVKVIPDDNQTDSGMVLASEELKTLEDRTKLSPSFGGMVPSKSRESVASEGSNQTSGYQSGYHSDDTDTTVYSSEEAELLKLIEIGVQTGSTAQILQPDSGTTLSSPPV
Kit, sequence (P10721 26-976): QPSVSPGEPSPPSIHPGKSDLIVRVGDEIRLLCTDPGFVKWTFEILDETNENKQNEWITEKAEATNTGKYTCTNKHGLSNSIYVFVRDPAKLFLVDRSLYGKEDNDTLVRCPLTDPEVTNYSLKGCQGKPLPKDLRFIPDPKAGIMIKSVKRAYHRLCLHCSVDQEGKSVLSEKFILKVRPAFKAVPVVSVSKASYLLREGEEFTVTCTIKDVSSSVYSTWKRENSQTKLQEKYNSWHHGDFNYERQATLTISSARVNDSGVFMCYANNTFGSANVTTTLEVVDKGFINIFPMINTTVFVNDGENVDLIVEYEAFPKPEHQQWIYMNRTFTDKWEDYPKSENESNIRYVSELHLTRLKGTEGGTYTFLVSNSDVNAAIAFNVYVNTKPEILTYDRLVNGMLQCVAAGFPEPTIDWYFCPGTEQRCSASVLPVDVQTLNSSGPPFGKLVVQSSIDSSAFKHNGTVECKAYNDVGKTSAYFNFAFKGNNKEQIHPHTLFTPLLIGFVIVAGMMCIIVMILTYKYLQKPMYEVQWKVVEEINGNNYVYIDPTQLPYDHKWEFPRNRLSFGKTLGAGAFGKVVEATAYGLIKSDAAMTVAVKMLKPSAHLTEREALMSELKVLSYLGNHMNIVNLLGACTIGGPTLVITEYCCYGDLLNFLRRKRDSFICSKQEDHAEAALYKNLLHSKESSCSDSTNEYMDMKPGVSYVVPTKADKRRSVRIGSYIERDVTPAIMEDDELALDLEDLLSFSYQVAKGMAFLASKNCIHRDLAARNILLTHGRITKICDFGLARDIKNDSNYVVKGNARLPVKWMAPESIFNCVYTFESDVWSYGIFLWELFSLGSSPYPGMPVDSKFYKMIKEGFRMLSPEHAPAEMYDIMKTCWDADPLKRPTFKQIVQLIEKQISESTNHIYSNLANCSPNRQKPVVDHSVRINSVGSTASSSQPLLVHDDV
B-Raf V600E, sequence (P15056 whole entry V600E): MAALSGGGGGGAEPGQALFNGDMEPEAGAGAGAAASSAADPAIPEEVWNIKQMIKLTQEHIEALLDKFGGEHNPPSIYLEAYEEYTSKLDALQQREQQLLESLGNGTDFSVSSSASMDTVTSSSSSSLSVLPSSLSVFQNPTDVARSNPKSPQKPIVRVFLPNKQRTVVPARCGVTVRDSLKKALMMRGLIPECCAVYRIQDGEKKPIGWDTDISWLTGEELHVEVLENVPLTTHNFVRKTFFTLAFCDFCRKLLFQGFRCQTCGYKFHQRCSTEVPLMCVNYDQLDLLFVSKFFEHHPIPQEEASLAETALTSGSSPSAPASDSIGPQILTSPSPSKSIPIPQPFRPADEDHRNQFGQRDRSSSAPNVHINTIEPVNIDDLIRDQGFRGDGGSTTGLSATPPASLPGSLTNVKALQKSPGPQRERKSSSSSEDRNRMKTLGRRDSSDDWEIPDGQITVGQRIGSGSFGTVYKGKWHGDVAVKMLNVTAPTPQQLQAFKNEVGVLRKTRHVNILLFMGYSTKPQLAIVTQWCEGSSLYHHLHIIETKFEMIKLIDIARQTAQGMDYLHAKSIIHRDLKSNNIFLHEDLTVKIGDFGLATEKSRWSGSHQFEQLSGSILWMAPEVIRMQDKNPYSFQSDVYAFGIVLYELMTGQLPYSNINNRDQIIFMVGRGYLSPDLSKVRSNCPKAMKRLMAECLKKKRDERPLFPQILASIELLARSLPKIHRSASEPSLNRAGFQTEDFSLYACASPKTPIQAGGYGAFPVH
Fms, sequence (P07333 20-972): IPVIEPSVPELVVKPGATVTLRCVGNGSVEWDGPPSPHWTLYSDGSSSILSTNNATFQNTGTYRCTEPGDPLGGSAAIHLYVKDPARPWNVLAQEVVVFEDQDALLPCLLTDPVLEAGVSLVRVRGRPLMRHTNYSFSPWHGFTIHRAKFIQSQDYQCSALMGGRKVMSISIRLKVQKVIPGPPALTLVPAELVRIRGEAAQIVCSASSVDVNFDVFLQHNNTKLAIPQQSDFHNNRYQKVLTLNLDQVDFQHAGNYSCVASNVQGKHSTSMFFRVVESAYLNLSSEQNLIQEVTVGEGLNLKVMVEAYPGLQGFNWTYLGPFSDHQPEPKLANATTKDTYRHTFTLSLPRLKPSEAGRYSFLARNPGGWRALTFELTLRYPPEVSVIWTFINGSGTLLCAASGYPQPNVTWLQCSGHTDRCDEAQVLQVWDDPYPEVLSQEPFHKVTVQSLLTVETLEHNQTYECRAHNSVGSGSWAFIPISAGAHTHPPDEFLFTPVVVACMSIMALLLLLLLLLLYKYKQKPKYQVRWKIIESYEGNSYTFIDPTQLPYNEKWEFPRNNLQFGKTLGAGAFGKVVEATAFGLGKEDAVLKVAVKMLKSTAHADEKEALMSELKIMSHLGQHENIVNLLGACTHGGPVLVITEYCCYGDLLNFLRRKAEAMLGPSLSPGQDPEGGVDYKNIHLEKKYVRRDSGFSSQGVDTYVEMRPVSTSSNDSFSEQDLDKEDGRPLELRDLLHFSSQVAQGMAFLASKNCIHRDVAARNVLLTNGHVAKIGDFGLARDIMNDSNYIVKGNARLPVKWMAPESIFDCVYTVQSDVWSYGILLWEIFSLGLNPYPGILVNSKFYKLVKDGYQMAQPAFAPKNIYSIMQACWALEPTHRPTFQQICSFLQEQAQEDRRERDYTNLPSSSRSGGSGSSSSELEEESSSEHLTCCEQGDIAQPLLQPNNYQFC
C-Raf, sequence (P04049 whole entry): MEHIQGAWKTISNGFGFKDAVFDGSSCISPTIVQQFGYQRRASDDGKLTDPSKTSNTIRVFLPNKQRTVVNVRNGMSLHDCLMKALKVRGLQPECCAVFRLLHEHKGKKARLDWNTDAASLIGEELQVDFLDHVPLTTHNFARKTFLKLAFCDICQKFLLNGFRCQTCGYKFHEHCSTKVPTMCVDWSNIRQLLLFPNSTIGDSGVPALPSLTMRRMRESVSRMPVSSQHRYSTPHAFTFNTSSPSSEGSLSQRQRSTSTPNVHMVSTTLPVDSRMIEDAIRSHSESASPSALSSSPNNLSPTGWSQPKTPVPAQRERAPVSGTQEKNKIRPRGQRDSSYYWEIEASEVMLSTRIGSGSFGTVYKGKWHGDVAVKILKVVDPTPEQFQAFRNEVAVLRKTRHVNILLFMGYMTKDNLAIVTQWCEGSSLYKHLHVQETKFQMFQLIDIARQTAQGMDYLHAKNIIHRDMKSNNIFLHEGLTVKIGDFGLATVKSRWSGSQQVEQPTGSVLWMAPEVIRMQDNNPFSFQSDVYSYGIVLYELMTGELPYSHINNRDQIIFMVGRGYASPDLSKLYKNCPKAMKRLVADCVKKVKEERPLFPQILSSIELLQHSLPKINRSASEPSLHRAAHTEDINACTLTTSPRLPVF
B-Raf, sequence (P15056 whole entry): as the sequence (P15056 whole entry V600E) above, with E600V counted along it

COc1ccc(CNc2ccc(Cc3c[nH]c4ncncc34)cn2)cn1 [P-0002, (6-Methoxy-pyridin-3-ylmethyl)-[5-(7H-pyrrolo[2,3-d]pyrimidin-5-ylmethyl)-pyridin-2-yl]-amine]
≥ 5.00: B-Raf V600E | Flt-3 | Fms | Kdr | Kit

FC(F)(F)c1ccc(CNc2ccc(Cc3c[nH]c4ncncc34)cn2)cn1 [P-0004, [5-(7H-Pyrrolo[2,3-d]pyrimidin-5-ylmethyl)-pyridin-2-yl]-(6-trifluoromethyl-pyridin-3-ylmethyl)-amine]
≥ 5.00: B-Raf V600E | C-Raf | Fms | Kdr | Kit

COc1ccc(CNc2ccc(C(=O)c3c[nH]c4ncncc34)cn2)cn1 [P-0008, {6-[(6-Methoxy-pyridin-3-ylmethyl)-amino]-pyridin-3-yl}-(7H-pyrrolo[2,3-d]pyrimidin-5-yl)-methanone]
≥ 5.00: B-Raf V600E | Flt-3 | Kdr | Kit

COc1ncc(CNc2ccc(Cc3c[nH]c4ncncc34)c(F)n2)cc1F [P-0010, (5-Fluoro-6-methoxy-pyridin-3-ylmethyl)-[6-fluoro-5-(7H-pyrrolo[2,3-d]pyrimidin-5-ylmethyl)-pyridin-2-yl]-amine]
≥ 5.00: Flt-3 | Fms | Kdr | TrkA

Fc1nc(NCc2ccc(N3CCOCC3)nc2)ccc1Cc1c[nH]c2ncncc12 [P-0039, [6-Fluoro-5-(7H-pyrrolo[2,3-d]pyrimidin-5-ylmethyl)-pyridin-2-yl]-(6-morpholin-4-yl-pyridin-3-ylmethyl)-amine]
≥ 5.00: B-Raf V600E | C-Raf | Fms | Kdr

Fc1ccc(CNc2ccc(Cc3c[nH]c4ncncc34)c(F)n2)nc1 [P-0041, (5-Fluoro-pyridin-2-ylmethyl)-[6-fluoro-5-(7H-pyrrolo[2,3-d]pyrimidin-5-ylmethyl)-pyridin-2-yl]-amine]
≥ 5.00: B-Raf V600E | C-Raf | Fms | Kdr | Kit

COc1ccc(CNc2ccc(Cc3c[nH]c4ncncc34)c(F)n2)c(OC)n1 [P-0043, (2,6-Dimethoxy-pyridin-3-ylmethyl)-[6-fluoro-5-(7H-pyrrolo[2,3-d]pyrimidin-5-ylmethyl)-pyridin-2-yl]-amine]
≥ 5.00: B-Raf | Fms | Kdr | Kit

Fc1nc(NCc2cncc(Cl)c2)ccc1Cc1c[nH]c2ncncc12 [P-0044, (5-Chloro-pyridin-3-ylmethyl)-[6-fluoro-5-(7H-pyrrolo[2,3-d]pyrimidin-5-ylmethyl)-pyridin-2-yl]-amine]
≥ 5.00: B-Raf V600E | C-Raf | Fms | Kdr

Fc1nc(NCc2cccnc2OCC(F)(F)F)ccc1Cc1c[nH]c2ncncc12 [P-0051, [6-Fluoro-5-(7H-pyrrolo[2,3-d]pyrimidin-5-ylmethyl)-pyridin-2-yl]-[2-(2,2,2-trifluoro-ethoxy)-pyridin-3-ylmethyl]-amine]
not listed: Flt-3 | B-Raf
≥ 5.00: all other assays above

CS(=O)(=O)c1ccc(F)cc1CNc1ccc(Cc2c[nH]c3ncncc23)c(F)n1 [P-0052, (5-Fluoro-2-methanesulfonyl-benzyl)-[6-fluoro-5-(7H-pyrrolo[2,3-d]pyrimidin-5-ylmethyl)-pyridin-2-yl]-amine]
≥ 5.00: B-Raf | B-Raf V600E | C-Raf | Fms | TrkA

CC(C)Oc1ncccc1CNc1ccc(Cc2c[nH]c3ncncc23)c(F)n1 [P-0057, [6-Fluoro-5-(7H-pyrrolo[2,3-d]pyrimidin-5-ylmethyl)-pyridin-2-yl]-(2-isopropoxy-pyridin-3-ylmethyl)-amine]
≥ 5.00: C-Raf | Fms | Kdr | Kit | TrkA

Cc1cc(C)cc(CNc2ccc(Cc3c[nH]c4ncncc34)c(F)n2)c1 [P-0063, (3,5-Dimethyl-benzyl)-[6-fluoro-5-(7H-pyrrolo[2,3-d]pyrimidin-5-ylmethyl)-pyridin-2-yl]-amine]
≥ 5.00: B-Raf V600E | Fms | Kdr | Kit | TrkA

Fc1cc(Cl)cc(CNc2ccc(Cc3c[nH]c4ncncc34)c(F)n2)c1 [P-0067, (3-Chloro-5-fluoro-benzyl)-[6-fluoro-5-(7H-pyrrolo[2,3-d]pyrimidin-5-ylmethyl)-pyridin-2-yl]-amine]
≥ 5.00: B-Raf V600E | Fms | Kdr | Kit | TrkA

Fc1nc(NCc2cccnc2OC2CCCC2)ccc1Cc1c[nH]c2ncncc12 [P-0070, (2-Cyclopentyloxy-pyridin-3-ylmethyl)-[6-fluoro-5-(7H-pyrrolo[2,3-d]pyrimidin-5-ylmethyl)-pyridin-2-yl]-amine]
not listed: Flt-3
≥ 5.00: all other assays above

c1cnc(OC2CCCC2)c(CNc2ncc(Cc3c[nH]c4ncncc34)cn2)c1 [P-0086, (2-Cyclopentyloxy-pyridin-3-ylmethyl)-[5-(7H-pyrrolo[2,3-d]pyrimidin-5-ylmethyl)-pyrimidin-2-yl]-amine]
not listed: Flt-3 | TrkA
≥ 5.00: all other assays above

COc1ncc(CNc2ccc(Cc3c[nH]c4ncnc(OC)c34)c(F)n2)cc1F [P-0091, (5-Fluoro-6-methoxy-pyridin-3-ylmethyl)-[6-fluoro-5-(4-methoxy-7H-pyrrolo[2,3-d]pyrimidin-5-ylmethyl)-pyridin-2-yl]-amine]
≥ 5.00: B-Raf V600E | Fms | Kdr | Kit | TrkA

COc1ncc(F)cc1CNc1ncc(Cc2c[nH]c3ncnc(OC)c23)cn1 [P-0093, (5-Fluoro-2-methoxy-pyridin-3-ylmethyl)-[5-(4-methoxy-7H-pyrrolo[2,3-d]pyrimidin-5-ylmethyl)-pyrimidin-2-yl]-amine]
≥ 5.00: C-Raf | Fms | Kdr | Kit

COc1ncc(F)cc1CNc1ccc(Cc2c[nH]c3ncnc(OC)c23)c(F)n1 [P-0094, (5-Fluoro-2-methoxy-pyridin-3-ylmethyl)-[6-fluoro-5-(4-methoxy-7H-pyrrolo[2,3-d]pyrimidin-5-ylmethyl)-pyridin-2-yl]-amine]
≥ 5.00: Fms | Kdr | Kit | TrkA

COc1cc(Cc2c[nH]c3ncnc(OC)c23)cnc1NCc1ccc(C(F)(F)F)nc1 [P-0096, [3-Methoxy-5-(4-methoxy-7H-pyrrolo[2,3-d]pyrimidin-5-ylmethyl)-pyridin-2-yl]-(6-trifluoromethyl-pyridin-3-ylmethyl)-amine]
≥ 5.00: B-Raf | C-Raf | Fms | Kdr | Kit

FC(F)(F)c1ccc(CNc2ccc(Cc3c[nH]c4ncnc(C5CCCC5)c34)cn2)cn1 [P-0104, [5-(4-Cyclopentyl-7H-pyrrolo[2,3-d]pyrimidin-5-ylmethyl)-pyridin-2-yl]-(6-trifluoromethyl-pyridin-3-ylmethyl)-amine]
≥ 5.00: Flt-3 | Fms | Kit

From US8158636B2, “Compounds and methods for kinase modulation, and indications therefor” (Plexxikon Inc., priority 2008, dated 2012)
